# In patent US4593104A, “2-halo-N-(azole-1-yl-methyl)-substituted acetanilides” (BASF Aktiengesellschaft, priority 1976, dated 1986):
# Columns and labels:
# Glyc. max = assay: preemergence treatment in the greenhouse, % damage; assay type: in vivo, Glycine max
# Description: (§1) The vessels employed were plastic flowerpots having a volume of 300 cm^3; the substrate was a sandy loam containing about 1.5% humus. The seeds of the test plants (see Table 1) were sown shallow, and separated according to species. In the case of Cyperus esculentus, pregerminated tubers were planted. In the preemergence treatment, the active ingredients were then immediately applied to the surface of the soil. They were suspended or emulsified in water as the vehicle, and sprayed through atomizing nozzles. After the agents had been applied, the vessels were lightly sprinkler-irrigated to set germination and growth going, and to activate the chemical agents. The vessels were then covered with transparent plastic hoods until the plants had taken root. This cover ensured uniform germination of the test plants (to the extent that this was not impaired by the chemicals), and prevented readily volatile substances from evaporating.
# (§2) For postemergence treatment, the plants were first grown to a height of from 3 to 10 cm, depending on their habit, before treated. Hoods were not placed on the pots. The experiments were set up in the greenhouse, hotter areas (25° to 40° C.) being preferred for heat-loving species, and 15° to 30° C. for plants from moderate climates. The experiments were carried out for from 4 to 6 weeks. During this period the plants were tended and their reaction to the various treatments was assessed. The following tables contain the substances investigated, the application rates in kg/ha of active ingredient, and the test plant species. Assessments were made on a 0 to 100 scale, 0 denoting no damage or normal emergence, and 100 denoting no emergence or complete destruction of at least the visible plant parts.
# Gossyp. hirs. = assay: preemergence treatment in the greenhouse, % damage; assay type: in vivo, Gosspyium hirsutum
# Description: as §1, §2
# Cyper. escul. [1] = assay: postemergence application in the greenhouse, % damage; assay type: in vivo, Cyperus esculentus
# Description: as §1, §2
# Echin. c.g. = assay: preemergence treatment in the greenhouse, % damage; assay type: in vivo
# Description: as §1, §2
# Setaria spp. [2] = assay: preemergence treatment in the greenhouse, % damage; assay type: in vivo
# Description: as §1, §2
# Euph. gen. = assay: preemergence treatment in the greenhouse, % damage; assay type: in vivo
# Description: as §1, §2
# Solanum nigrum = assay: preemergence treatment in the greenhouse, % damage; assay type: in vivo
# Description: as §1, §2
# Amar. retro. = assay: preemergence treatment in the greenhouse, % damage; assay type: in vivo
# Description: as §1, §2
# Chrys. seget. = assay: postemergence application in the greenhouse, % damage; assay type: in vivo
# Description: as §1, §2
# Avena fat. = assay: as above; assay type: in vivo
# Description: as §1, §2
# Setaria spp. [3] = assay: as above; assay type: in vivo
# Description: as §1, §2
# Matric. spp. [4] = assay: as above; assay type: in vivo
# Description: as §1, §2
# Alopec. myosur. [5] = assay: as above; assay type: in vivo
# Description: as §1, §2
# Stell. med. [6] = assay: as above; assay type: in vivo
# Description: as §1, §2
# Cyper. escul. [7] = assay: preemergence treatment in the greenhouse, % damage; assay type: in vivo, Cyperus esculentus
# Description: as §1, §2
# Brassica napus = assay: preemergence application in the open, % damage; assay type: in vivo
# Method: (§3) The experiments were carried out on small plots. The soil was a sandy loam having a pH of from 5 to 6 and containing from 1 to 1.5% humus. The treatment was preemergence, the active ingredients being applied immediately or at the latest 3 days after sowing. The crop plants were sown in rows. The weed flora was made up of the most widely varying species and was natural; the weed flora depended on the time of the year and in part on the crop (e.g., spring-germinating, summer-germinating). The substances were emulsified or suspended in water as the vehicle, and applied by means of a motor-driven plot spray mounted on a hitch. When no rain fell, the plots were watered to ensure germination and growth of the crop plants and weeds. All the experiments were run for several weeks. Over this period, assessments were made at certain intervals on the 0 to 100 scale.
# Lamium spp. = assay: preemergence application in the open, % damage; assay type: in vivo
# Method: as §3
# Alopec. myosur. [8] = assay: preemergence application in the open, % damage; assay type: in vivo
# Method: as §3
# Anth./Matric. = assay: preemergence application in the open, % damage; assay type: in vivo; conditions: one value printed for two rates (2.0 4.0 kg/ha)
# Method: as §3
# Stellaria media = assay: preemergence application in the open, % damage; assay type: in vivo
# Method: as §3
# Matric. spp. [9] = assay: preemergence treatment in the greenhouse, % damage; assay type: in vivo
# Description: as §1, §2
# Alopec. myosur. [10] = assay: preemergence treatment in the greenhouse, % damage; assay type: in vivo
# Description: as §1, §2
# Stell. med. [11] = assay: preemergence treatment in the greenhouse, % damage; assay type: in vivo
# Description: as §1, §2
# Cyp. diff. = assay: preemergence treatment in the greenhouse, % damage; assay type: in vivo
# Description: as §1, §2
# Sorgh. halep. = assay: preemergence treatment in the greenhouse, % damage; assay type: in vivo
# Description: as §1, §2
smiles,measurement,setting,value
CCc1cccc(C)c1N(Cn1ccc(C)n1)C(=O)CCl [Compound 68],% damage,Glyc. max; 0.25 kg/ha,0%
same,% damage,Glyc. max; 1.0 kg/ha,0%
same,% damage,Glyc. max; 2.0 kg/ha,10%
same,% damage,Gossyp. hirs.; 0.25 kg/ha,0%
same,% damage,Gossyp. hirs.; 1.0 kg/ha,5%
same,% damage,Gossyp. hirs.; 2.0 kg/ha,5%
same,% damage,Cyper. escul. [1]; 1.0 kg/ha,85%
same,% damage,Cyper. escul. [1]; 2.0 kg/ha,85%
same,% damage,Echin. c.g.; 0.25 kg/ha,95%
same,% damage,Echin. c.g.; 1.0 kg/ha,95%
same,% damage,Echin. c.g.; 2.0 kg/ha,95%
same,% damage,Setaria spp. [2]; 0.25 kg/ha,95%
same,% damage,Setaria spp. [2]; 1.0 kg/ha,100%
same,% damage,Setaria spp. [2]; 2.0 kg/ha,100%
same,% damage,Euph. gen.; 0.25 kg/ha,10%
same,% damage,Euph. gen.; 1.0 kg/ha,60%
same,% damage,Euph. gen.; 2.0 kg/ha,75%
same,% damage,Solanum nigrum; 0.25 kg/ha,95%
same,% damage,Solanum nigrum; 1.0 kg/ha,100%
same,% damage,Solanum nigrum; 2.0 kg/ha,100%
same,% damage,Amar. retro.; 0.25 kg/ha,95%
same,% damage,Amar. retro.; 1.0 kg/ha,100%
same,% damage,Amar. retro.; 2.0 kg/ha,100%
same,% damage,Chrys. seget.; 1.0 kg/ha,40%
same,% damage,Chrys. seget.; 2.0 kg/ha,50%
same,% damage,Avena fat.; 1.0 kg/ha,90%
same,% damage,Avena fat.; 2.0 kg/ha,90%
same,% damage,Setaria spp. [3]; 1.0 kg/ha,90%
same,% damage,Setaria spp. [3]; 2.0 kg/ha,95%
same,% damage,Matric. spp. [4]; 1.0 kg/ha,80%
same,% damage,Matric. spp. [4]; 2.0 kg/ha,80%
same,% damage,Alopec. myosur. [5]; 1.0 kg/ha,90%
same,% damage,Alopec. myosur. [5]; 2.0 kg/ha,90%
same,% damage,Stell. med. [6]; 1.0 kg/ha,60%
same,% damage,Stell. med. [6]; 2.0 kg/ha,60%
same,% damage,Cyper. escul. [7]; 0.25 kg/ha,65%
same,% damage,Cyper. escul. [7]; 1.0 kg/ha,80%
same,% damage,Cyper. escul. [7]; 2.0 kg/ha,80%
CCc1cccc(C)c1N(Cn1cncn1)C(=O)CCl [Compound 129],% damage,Brassica napus; 2.0 kg/ha,7.5%
same,% damage,Brassica napus; 4.0 kg/ha,22.5%
same,% damage,Lamium spp.; 2.0 kg/ha,45%
same,% damage,Lamium spp.; 4.0 kg/ha,90%
same,% damage,Alopec. myosur. [8]; 2.0 kg/ha,35%
same,% damage,Alopec. myosur. [8]; 4.0 kg/ha,68%
same,% damage,Anth./Matric.,35%
same,% damage,Stellaria media; 2.0 kg/ha,24%
same,% damage,Stellaria media; 4.0 kg/ha,49%
Cc1cc(C)n(CN(C(=O)CCl)c2c(C)ccc(C)c2C)n1 [Compound 47],% damage,Glyc. max; 0.25 kg/ha,20%
same,% damage,Glyc. max; 0.5 kg/ha,20%
same,% damage,Glyc. max; 1.0 kg/ha,30%
same,% damage,Gossyp. hirs.; 0.25 kg/ha,0%
same,% damage,Gossyp. hirs.; 0.5 kg/ha,0%
same,% damage,Gossyp. hirs.; 1.0 kg/ha,0%
same,% damage,Echin. c.g.; 0.25 kg/ha,95%
same,% damage,Echin. c.g.; 0.5 kg/ha,95%
same,% damage,Echin. c.g.; 1.0 kg/ha,100%
same,% damage,Setaria spp. [2]; 0.25 kg/ha,100%
same,% damage,Setaria spp. [2]; 0.5 kg/ha,100%
same,% damage,Setaria spp. [2]; 1.0 kg/ha,100%
same,% damage,Euph. gen.; 0.25 kg/ha,10%
same,% damage,Euph. gen.; 0.5 kg/ha,10%
same,% damage,Euph. gen.; 1.0 kg/ha,20%
same,% damage,Matric. spp. [9]; 0.25 kg/ha,80%
same,% damage,Matric. spp. [9]; 0.5 kg/ha,90%
same,% damage,Matric. spp. [9]; 1.0 kg/ha,100%
same,% damage,Alopec. myosur. [10]; 0.25 kg/ha,95%
same,% damage,Alopec. myosur. [10]; 0.5 kg/ha,100%
same,% damage,Alopec. myosur. [10]; 1.0 kg/ha,100%
same,% damage,Amar. retro.; 0.25 kg/ha,100%
same,% damage,Amar. retro.; 0.5 kg/ha,100%
same,% damage,Amar. retro.; 1.0 kg/ha,100%
same,% damage,Stell. med. [11]; 0.25 kg/ha,30%
same,% damage,Stell. med. [11]; 0.5 kg/ha,80%
same,% damage,Stell. med. [11]; 1.0 kg/ha,100%
same,% damage,Cyp. diff.; 0.25 kg/ha,100%
same,% damage,Cyp. diff.; 0.5 kg/ha,100%
same,% damage,Cyp. diff.; 1.0 kg/ha,100%
same,% damage,Sorgh. halep.; 0.25 kg/ha,85%
same,% damage,Sorgh. halep.; 0.5 kg/ha,90%
same,% damage,Sorgh. halep.; 1.0 kg/ha,95%
CCc1cccc(C)c1N(Cn1cncn1)C(=O)CCl [Compound 189],% damage,Glyc. max; 0.5 kg/ha,0%
same,% damage,Glyc. max; 1.0 kg/ha,0%
same,% damage,Glyc. max; 2.0 kg/ha,0%
same,% damage,Gossyp. hirs.; 0.5 kg/ha,0%
same,% damage,Gossyp. hirs.; 1.0 kg/ha,20%
same,% damage,Gossyp. hirs.; 2.0 kg/ha,20%
same,% damage,Cyper. escul. [1]; 1.0 kg/ha,65%
same,% damage,Cyper. escul. [1]; 2.0 kg/ha,65%
same,% damage,Echin. c.g.; 0.5 kg/ha,90%
same,% damage,Echin. c.g.; 1.0 kg/ha,95%
same,% damage,Echin. c.g.; 2.0 kg/ha,95%
same,% damage,Setaria spp. [2]; 0.5 kg/ha,75%
same,% damage,Setaria spp. [2]; 1.0 kg/ha,95%
same,% damage,Setaria spp. [2]; 2.0 kg/ha,100%
same,% damage,Euph. gen.; 0.5 kg/ha,90%
same,% damage,Euph. gen.; 1.0 kg/ha,95%
same,% damage,Euph. gen.; 2.0 kg/ha,95%
same,% damage,Solanum nigrum; 0.5 kg/ha,30%
same,% damage,Solanum nigrum; 1.0 kg/ha,95%
same,% damage,Solanum nigrum; 2.0 kg/ha,95%
same,% damage,Amar. retro.; 0.5 kg/ha,30%
same,% damage,Amar. retro.; 1.0 kg/ha,95%
same,% damage,Amar. retro.; 2.0 kg/ha,95%
same,% damage,Chrys. seget.; 1.0 kg/ha,0%
same,% damage,Chrys. seget.; 2.0 kg/ha,20%
same,% damage,Avena fat.; 1.0 kg/ha,60%
same,% damage,Avena fat.; 2.0 kg/ha,60%
same,% damage,Setaria spp. [3]; 1.0 kg/ha,80%
same,% damage,Setaria spp. [3]; 2.0 kg/ha,85%
same,% damage,Matric. spp. [4]; 1.0 kg/ha,30%
same,% damage,Matric. spp. [4]; 2.0 kg/ha,60%
same,% damage,Alopec. myosur. [5]; 1.0 kg/ha,70%
same,% damage,Alopec. myosur. [5]; 2.0 kg/ha,70%
same,% damage,Stell. med. [6]; 1.0 kg/ha,0%
same,% damage,Stell. med. [6]; 2.0 kg/ha,40%
same,% damage,Cyper. escul. [7]; 0.5 kg/ha,50%
same,% damage,Cyper. escul. [7]; 1.0 kg/ha,60%
same,% damage,Cyper. escul. [7]; 2.0 kg/ha,80%
